Experimental data from publication PMC9775191, “A Subset Screen of the Compounds Australia Scaffold Library Identifies 7-Acylaminodibenzoxazepinones as Potent and Selective Hits for Anti-Giardia Drug Discovery” (Biomedicines, 2022).

System: G. duodenalis BRIS/91/HEPU/1279
Assay: Primary Giardia screen at 10 µM (live-cell imaging, automated counting)
Format: cell-based, Giardia duodenalis
Details: for % Inhibition n=1 48h / % Inhibition n=1 24h: first singlicate assay; for % Inhibition n=2 24h / % Inhibition n=2 48h: re-assessment
Outline: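 Compounds were tested once each at 10 μM final (0.2% DMSO) in culture medium under 3% O2, 5% CO2 in N2. Growth was read at 24 and 48 h by live-cell imaging with automated counting, and inhibition expressed as percent growth versus 0.2% DMSO vehicle after media-only background subtraction.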

| SMILES | % Inhibition n=1 48h [%] | also measured |
| --- | --- | --- |
| CCCn1cc(S(=O)(=O)c2ccc(OC)cc2)c(=O)c2cc(F)c(N3CCC(C)CC3)cc21 [SN00787795] | 0.0 |  |
| Cc1noc2ncc(C(=O)N3CCN(C(C)C)CC3)cc12 [SN00779057] | 0.0 |  |
| CCc1onc(C)c1C1CCCN1S(=O)(=O)c1ccc(CC(C)C)cc1 (centres unmarked) [SN00793887] | 26.3 |  |
| C/C(=C/C(=O)N1CCN(C(=O)c2ccc3[nH]cnc3c2)CC1)C1CC1 [SN00774586] | 5.9 |  |
| O=C(Nc1cnn(Cc2cn3ccccc3n2)c1)Nc1ccc(F)cc1F [SN00774154] | 7.2 |  |
| Cc1onc(-c2ccccc2)c1-c1nnc(CN2CCCN(CC(=O)NC(C)(C)C)CC2)o1 [SN00777957] | 2.0 |  |
| COc1ccc(Cn2c(=O)c3nccnc3n(Cc3cccc(C)c3)c2=O)cc1 [SN00789526] | 0.0 |  |
| Cc1[nH]c(=O)sc1S(=O)(=O)N1CCN(c2ccccc2[N+](=O)[O-])CC1 [SN00779481] | 0.0 |  |
| Cc1nc(-c2cc(S(=O)(=O)N3CCCCCC3)c(C)s2)sc1C [SN00797236] | 11.8 |  |
| CC(C)C(=O)N1CCc2c(c(COCc3ccccc3F)nn2C)C1 [SN00796410] | 0.0 |  |
| CNC1(c2nnnn2-c2ccc(OC)cc2)CCCCC1 [SN00794158] | 11.8 |  |
| CCn1nccc1C(=O)NC1CCN(c2nccnc2OC)C1 (centres unmarked) [SN00801093] | 0.0 |  |
| CC(=O)Nc1cc(NC(=O)c2cc(-c3ccccc3)nc3c2cnn3Cc2cccnc2)ccc1F [SN00776945] | 50.1 | Average % Inhibition 24h: 0.0%; % Inhibition n=1 24h: 0.0%; % Inhibition n=2 24h: 0.0%; Average % Inhibition 48h: 25.1%; % Inhibition n=2 48h: 0.0% |
| CCCNS(=O)(=O)c1cc(-c2nc(-c3cccc(Cl)c3)cs2)n(C)c1C [SN00795169] | 47.2 | Average % Inhibition 24h: 21.9%; % Inhibition n=1 24h: 31.8%; % Inhibition n=2 24h: 12.0%; Average % Inhibition 48h: 32.8%; % Inhibition n=2 48h: 18.5% |
| Cc1ccc(NC(=O)c2ccc(-c3noc(C4CCCN(C(=O)c5ccccc5)C4)n3)cc2)cc1 (centres unmarked) [SN00797407] | 5.6 |  |
| Cc1cccc(N(C)S(=O)(=O)c2cc(-c3ccno3)sc2C)c1 [SN00790813] | 6.1 |  |
| CN1CCC(OC2CCN(C(=O)CC3CCCC3)CC2)CC1 [SN00801545] | 26.4 |  |
| Cc1nc(-c2ccc(C(=O)N3CCCC3C(=O)Nc3ccc(C(C)C)cc3)cc2)no1 (centres unmarked) [SN00793315] | 0.0 |  |
| Cc1ccc(Cl)cc1NC(=O)C1CC2CSCN2C12C(=O)Nc1ccccc12 (centres unmarked) [SN00789076] | 17.2 |  |
| CCN1CCN(c2ccc3nnc(C(C)C)n3n2)CC1 [SN00803240] | 0.4 |  |
| CCCc1noc(Cn2c(-c3ccc(OC)c(OC)c3)noc2=O)n1 [SN00781301] | 0.0 |  |
| CC(=O)N1CCC2(CC1)OC(=O)C(C)=C2C(=O)NC1CC1 [SN00787857] | 0.0 |  |
| Cn1cc2c(n1)c(=O)n(Cc1ccccc1)c(=O)n2CC(=O)Nc1cccc(F)c1 [SN00796169] | 46.9 | Average % Inhibition 24h: 30.6%; % Inhibition n=1 24h: 37.8%; % Inhibition n=2 24h: 23.4%; Average % Inhibition 48h: 62.8%; % Inhibition n=2 48h: 78.6% |
| CC(C)Cn1nc(C(=O)N2CCCCC2c2nc3ccccc3s2)c2ccccc2c1=O (centres unmarked) [SN00774515] | 2.8 |  |
| COc1ccc(-n2ccn3c(CCC(=O)Nc4cc(C)cc(C)c4)nnc3c2=O)cc1 [SN00781639] | 16.2 |  |

| SMILES | % Inhibition n=1 48h [%] | also measured |
| --- | --- | --- |
| Cc1cc(C)n2nc(C(=O)N3CCC(CC(N)=O)CC3)nc2n1 [SN00775259] | 0.0 |  |
| COc1cccc(Cn2nc3c(S(=O)(=O)N4CCOCC4)cccn3c2=O)c1 [SN00798018] | 4.9 |  |
| CC1=NN(C(=O)COc2ccc(C)c(C)c2)C(O)(C(F)(F)F)C1 (centres unmarked) [SN00783577] | 0.0 |  |
| CS(=O)(=O)c1nccn1Cc1ccccn1 [SN00783289] | 1.6 |  |
| CCCOc1ccc(C2OCCn3c(-c4ccc(OC)cc4)c4c(=O)n(C)c(=O)n(C)c4c32)cc1 (centres unmarked) [SN00786016] | 14.8 |  |
| COc1cccc([C@H]2C[C@@H](C(F)(F)F)n3ncc(C(=O)N4CCCCC4)c3N2)c1 (relative stereo) [SN00783803] | 0.0 |  |
| CCN1CCCN(c2ncnc3c2c(Br)nn3C)CC1 [SN00782469] | 4.4 |  |
| Cc1ccc2c(=O)c(C(=O)N3CCSCC3)c[nH]c2n1 [SN00784417] | 11.0 |  |
| O=C(NCCN1CCCCCC1=O)C1CCCN1C(=O)C1CCCC1 (centres unmarked) [SN00774624] | 0.0 |  |
| CN(C)CC1CN(S(=O)(=O)c2ccccc2)CC12CCOCC2 (centres unmarked) [SN00801264] | 0.0 |  |
| COc1ccc2cc(-c3csc(Cc4nc(-c5ccccn5)no4)n3)c(=O)oc2c1 [SN00797738] | 2.5 |  |
| Cc1ccc(C(=O)N2CCCC2c2nc(-c3cccc(C)c3)no2)cc1 (centres unmarked) [SN00797416] | 0.0 |  |
| CCCc1nnc(C(=O)Nc2cccc(C(=O)NCc3c[nH]nc3C)c2)s1 [SN00790723] | 0.0 |  |
| CC(C)c1ccc(-c2noc(N3CCC(C(=O)N4CCN(C5CCCCC5)CC4)CC3)n2)cc1 [SN00793072] | 11.6 |  |
| CCc1noc2nc(C)nc(N3CCCC(C(=O)O)C3)c12 (centres unmarked) [SN00785300] | 0.0 |  |
| CN1C(=O)c2cc(C(=O)NCCCc3ccccc3)nn2CC1(C)C(=O)NC1CCCC1 (centres unmarked) [SN00788236] | 0.6 |  |
| Cc1nc2c(c(=O)n1CC(=O)Nc1cccc(F)c1)CCN(Cc1ccccc1)C2 [SN00795483] | 0.0 |  |
| Cc1ccc(CNc2nc(-c3ccco3)nn2C(=O)c2cccc([N+](=O)[O-])c2)cc1 [SN00786222] | 6.6 |  |
| O=C(Cc1ccc2c(c1)CCC2)N1CCC(n2cncn2)CC1 [SN00783222] | 6.3 |  |
| Cc1ccc(NC(=O)Nc2ccc3c(c2)CCN3S(=O)(=O)c2ccccc2)cc1 [SN00796277] | 10.0 |  |
| CN1C(=O)Cc2cc(-c3csc(N=C(N)N)n3)ccc21 [SN00777034] | 0.0 |  |
| CC(C)CC(=O)NCc1nc2cccnc2n1Cc1ccc(F)cc1 [SN00793251] | 8.4 |  |
| O=C(Nc1ccccc1)N1CCCC1CN1CCCCC1 (centres unmarked) [SN00772093] | 16.8 |  |
| CCOC(=O)c1cccc(Nc2ncccc2S(N)(=O)=O)c1 [SN00799296] | 70.8 | Average % Inhibition 24h: 14.5%; % Inhibition n=1 24h: 29.1%; % Inhibition n=2 24h: 0.0%; Average % Inhibition 48h: 35.4%; % Inhibition n=2 48h: 0.0% |
| Cc1nc(-c2ccccc2)c(C(=O)N2CCCN(S(=O)(=O)c3ccc(F)cc3)CC2)s1 [SN00778504] | 9.7 |  |

| SMILES | % Inhibition n=1 48h [%] | also measured |
| --- | --- | --- |
| Cc1ccc(S(=O)(=O)Nc2cc3c(cc2NCc2ccccc2)n(C)c(=O)n3C)cc1 [SN00784759] | 14.3 |  |
| Cc1ccc(CNC(=O)N2CCCN(c3ncccc3-c3nc(C4CC4)no3)CC2)cc1 [SN00800535] | 34.3 |  |
| Cc1ccccc1NC(=O)c1c(C)oc2ncnc(N3CCCCC3)c12 [SN00788425] | 15.9 |  |
| CCc1nc(CN2CCCN(C(=O)C3CCC3)CC2)cs1 [SN00777931] | 3.9 |  |
| O=C1CC(C(=O)N2CCCCC2Cn2cccn2)CN1C1CCCC1 (centres unmarked) [SN00782719] | 0.0 |  |
| O=C(CCc1ccc(F)cc1)Nc1ccn(Cc2ccccn2)n1 [SN00775953] | 0.0 |  |
| CC1(C(=O)NC2CCCC2)Cn2c(ccc2-c2ccco2)C(=O)N1c1cccc(F)c1 (centres unmarked) [SN00787693] | 11.7 |  |
| O=C(Nc1cccc(O)c1)c1cc(-c2cccnc2)on1 [SN00784502] | 24.5 |  |
| Cc1nc(C)c2c(n1)N(CCN(C)C1CCCCC1)C(=O)CC2 [SN00802202] | 0.0 |  |
| CCC(=O)N1CCc2c(sc3ncnc(N(C)C4CCN(C)CC4)c23)C1 [SN00801485] | 0.0 |  |
| CCn1cc(C2OCCC2CNC/C=C/c2ccccc2OC)cn1 (centres unmarked) [SN00782244] | 28.6 |  |
| CCOC(=O)c1ccc(Nc2c(-c3ccccc3)nc3[nH]cnn23)cc1 [SN00794007] | 0.0 |  |
| Cc1cnc(C(=O)N2CCN(C(=O)OC(C)(C)C)C(C)C2)cn1 (centres unmarked) [SN00774718] | 0.0 |  |
| O=C(Nc1ccc(Br)cc1)c1ccc(F)c(S(=O)(=O)NCCc2ccccc2)c1 [SN00794458] | 3.9 |  |
| COc1ccc(-n2nc(C(=O)NCc3ccc(C)cc3)c3c4ccccc4n(C)c3c2=O)cc1 [SN00785076] | 5.1 |  |
| O=C(NC1CC1)c1cnn2c(-c3ccccn3)ccnc12 [SN00795482] | 0.0 |  |
| CCn1nc(C(=O)NCCOc2ccccc2)cc1-c1cc(C)sc1C [SN00802783] | 0.0 |  |
| Cc1c(C(=O)N2CCCC2Cn2cccn2)cnn1-c1ccccc1 (centres unmarked) [SN00774604] | 16.2 |  |
| COc1ccc(CN2CCC3(CC2)N=C(c2ccc(C)cc2)C(=O)N3)cc1 [SN00792212] | 16.2 |  |
| COc1ccc(CCNC(=O)C2c3ccccc3C(=O)N2Cc2ccc(C)cc2)cc1OC (centres unmarked) [SN00794542] | 6.3 |  |
| Cc1sc2cc(-c3ccccc3)oc2c1C(=O)NCc1ccccc1 [SN00796296] | 20.2 |  |
| CCc1noc(C)c1C(=O)N1CCCN(Cc2csc(C)n2)CC1 [SN00778114] | 29.4 |  |
| CCOC(=O)Cc1ccc(NC(=O)N2CCC3(CC2)N=C(c2ccc(F)cc2)C(=O)N3)cc1 [SN00792712] | 14.3 |  |
| O=C(NCCC1=CCCCC1)C1CCN(c2nc3cccnc3n(Cc3ccccc3)c2=O)CC1 [SN00790039] | 11.4 |  |
| Cn1cc(-c2cc3n(n2)CCC(=O)N3CC(=O)N2CCC3(CC2)OCCO3)c2ccccc21 [SN00792412] | 10.8 |  |
